Data as given in PubChem BioAssay (NCI).
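Step 1: Grow cells in 96-well plates. Step 2: Expose to compound for 48 hours at 5 concentrations. Step 3: Interpolate endpoints linearly; if unreached, use highest concentration. At the GI50, growth is halved. TGI: total growth inhibition.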

Key:
Test in all cases: growth of human tumour cells (NCI), 48 h
HOP-62 NSCLC = system: HOP-62 NSCLC
U251 CNS = system: U251 CNS
DU-145 prostate = system: DU-145 prostate
SF-295 CNS = system: SF-295 CNS
NCI/ADR-RES ovarian = system: NCI/ADR-RES ovarian
KM12 colon = system: KM12 colon
PC-3 prostate = system: PC-3 prostate
UACC-62 melanoma = system: UACC-62 melanoma
OVCAR-4 ovarian = system: OVCAR-4 ovarian
HCT-116 colon = system: HCT-116 colon
MOLT-4 leukemia = system: MOLT-4 leukemia
SK-MEL-28 melanoma = system: SK-MEL-28 melanoma
MDA-MB-231 breast = system: MDA-MB-231 breast
HL-60(TB) leukemia = system: HL-60(TB) leukemia
NCI-H226 lung = system: NCI-H226 lung
EKVX NSCLC = system: EKVX NSCLC
SNB-19 CNS = system: SNB-19 CNS
M14 melanoma = system: M14 melanoma
SK-MEL-2 melanoma = system: SK-MEL-2 melanoma
OVCAR-8 ovarian = system: OVCAR-8 ovarian
TK-10 renal = system: TK-10 renal
SW-620 colon = system: SW-620 colon
CCRF-CEM leukemia = system: CCRF-CEM leukemia
CAKI-1 renal = system: CAKI-1 renal
SK-OV-3 ovarian = system: SK-OV-3 ovarian
HOP-92 NSCLC = system: HOP-92 NSCLC
LOX IMVI melanoma = system: LOX IMVI melanoma
HT29 colon = system: HT29 colon
SK-MEL-5 melanoma = system: SK-MEL-5 melanoma
SN12C renal = system: SN12C renal
MDA-MB-435 = system: MDA-MB-435
HCC-2998 colon = system: HCC-2998 colon
OVCAR-3 ovarian = system: OVCAR-3 ovarian
BT-549 breast = system: BT-549 breast
UACC-257 melanoma = system: UACC-257 melanoma
UO-31 renal = system: UO-31 renal
OVCAR-5 ovarian = system: OVCAR-5 ovarian
A549 NSCLC = system: A549 NSCLC
MALME-3M melanoma = system: MALME-3M melanoma
MCF7 breast = system: MCF7 breast
ACHN renal = system: ACHN renal
SR leukemia = system: SR leukemia
RXF 393 renal = system: RXF 393 renal
786-0 renal = system: 786-0 renal
IGROV1 ovarian = system: IGROV1 ovarian
T-47D breast = system: T-47D breast
COLO 205 colon = system: COLO 205 colon
SF-268 CNS = system: SF-268 CNS
NCI-H522 lung = system: NCI-H522 lung
K-562 leukemia = system: K-562 leukemia
HS 578T breast = system: HS 578T breast
NCI-H23 lung = system: NCI-H23 lung
NCI-H460 lung = system: NCI-H460 lung
HCT-15 colon = system: HCT-15 colon
SF-539 CNS = system: SF-539 CNS
A498 renal = system: A498 renal

Structure (SMILES): O=C(Nc1ccc(Cl)cc1)c1cc(S(=O)(=O)Nc2nnc(-c3ccccc3)c(-c3ccccc3)n2)c(SCc2ccccc2)cc1Cl
- GI50 (HOP-62 NSCLC): 26.6 µM
- TGI (HOP-62 NSCLC): > 58.5 µM
- GI50 (U251 CNS): 20.7 µM
- TGI (U251 CNS): 51.3 µM
- GI50 (DU-145 prostate): 37.2 µM
- TGI (DU-145 prostate): > 62.1 µM
- GI50 (SF-295 CNS): 19 µM
- TGI (SF-295 CNS): 41.5 µM
- GI50 (NCI/ADR-RES ovarian): > 50.2 µM
- TGI (NCI/ADR-RES ovarian): > 80.2 µM
- GI50 (KM12 colon): 21.9 µM
- TGI (KM12 colon): > 62 µM
- GI50 (PC-3 prostate): 39.8 µM
- TGI (PC-3 prostate): > 100 µM
- GI50 (UACC-62 melanoma): 18.2 µM
- TGI (UACC-62 melanoma): 39.7 µM
- GI50 (OVCAR-4 ovarian): 49.8 µM
- TGI (OVCAR-4 ovarian): > 85.4 µM
- GI50 (HCT-116 colon): 19.8 µM
- TGI (HCT-116 colon): 46.5 µM
- GI50 (MOLT-4 leukemia): 17.4 µM
- TGI (MOLT-4 leukemia): > 60.4 µM
- GI50 (SK-MEL-28 melanoma): 28.9 µM
- TGI (SK-MEL-28 melanoma): > 73.6 µM
- GI50 (MDA-MB-231 breast): 19.3 µM
- TGI (MDA-MB-231 breast): > 56.2 µM
- GI50 (HL-60(TB) leukemia): 23.3 µM
- TGI (HL-60(TB) leukemia): > 68.3 µM
- GI50 (NCI-H226 lung): 27.7 µM
- TGI (NCI-H226 lung): > 70.2 µM
- GI50 (EKVX NSCLC): 32.1 µM
- TGI (EKVX NSCLC): > 63.8 µM
- GI50 (SNB-19 CNS): 37.9 µM
- TGI (SNB-19 CNS): > 67 µM
- GI50 (M14 melanoma): 21.2 µM
- TGI (M14 melanoma): 51.6 µM
- GI50 (SK-MEL-2 melanoma): 41.3 µM
- TGI (SK-MEL-2 melanoma): > 100 µM
- GI50 (OVCAR-8 ovarian): 31.8 µM
- TGI (OVCAR-8 ovarian): > 71 µM
- GI50 (TK-10 renal): 29.8 µM
- TGI (TK-10 renal): > 64.4 µM
- GI50 (SW-620 colon): 38.1 µM
- TGI (SW-620 colon): > 100 µM
- GI50 (CCRF-CEM leukemia): 29.7 µM
- TGI (CCRF-CEM leukemia): 76.8 µM
- GI50 (CAKI-1 renal): 24.8 µM
- TGI (CAKI-1 renal): > 59 µM
- GI50 (SK-OV-3 ovarian): > 44.2 µM
- TGI (SK-OV-3 ovarian): > 60.7 µM
- GI50 (HOP-92 NSCLC): 25.3 µM
- TGI (HOP-92 NSCLC): 66.8 µM
- GI50 (LOX IMVI melanoma): 17.3 µM
- TGI (LOX IMVI melanoma): 35.1 µM
- GI50 (HT29 colon): 28.3 µM
- TGI (HT29 colon): > 82 µM
- GI50 (SK-MEL-5 melanoma): 18.1 µM
- TGI (SK-MEL-5 melanoma): 39.4 µM
- GI50 (SN12C renal): 16.4 µM
- TGI (SN12C renal): 38.4 µM
- GI50 (MDA-MB-435): 21.2 µM
- TGI (MDA-MB-435): 61.5 µM
- GI50 (HCC-2998 colon): 17.6 µM
- TGI (HCC-2998 colon): 33.7 µM
- GI50 (OVCAR-3 ovarian): 17.1 µM
- TGI (OVCAR-3 ovarian): 41.2 µM
- GI50 (BT-549 breast): 34.9 µM
- TGI (BT-549 breast): > 70.5 µM
- GI50 (UACC-257 melanoma): 21.9 µM
- TGI (UACC-257 melanoma): 61.3 µM
- GI50 (UO-31 renal): 35.9 µM
- TGI (UO-31 renal): > 100 µM
- GI50 (OVCAR-5 ovarian): 36.4 µM
- TGI (OVCAR-5 ovarian): > 58 µM
- GI50 (A549 NSCLC): 37.2 µM
- TGI (A549 NSCLC): > 62.2 µM
- GI50 (MALME-3M melanoma): 34.2 µM
- TGI (MALME-3M melanoma): > 100 µM
- GI50 (MCF7 breast): 29.6 µM
- TGI (MCF7 breast): > 92 µM
- GI50 (ACHN renal): 27.7 µM
- TGI (ACHN renal): > 61.5 µM
- GI50 (SR leukemia): 28.9 µM
- TGI (SR leukemia): > 57.3 µM
- GI50 (RXF 393 renal): 896 nM
- TGI (RXF 393 renal): > 57.7 µM
- GI50 (786-0 renal): 23.6 µM
- TGI (786-0 renal): > 57.8 µM
- GI50 (IGROV1 ovarian): 33.6 µM
- TGI (IGROV1 ovarian): > 95.4 µM
- GI50 (T-47D breast): 24.8 µM
- TGI (T-47D breast): > 64.2 µM
- GI50 (COLO 205 colon): 23.8 µM
- TGI (COLO 205 colon): > 60.3 µM
- GI50 (SF-268 CNS): 26.9 µM
- TGI (SF-268 CNS): > 68.3 µM
- GI50 (NCI-H522 lung): 43.9 µM
- TGI (NCI-H522 lung): > 71.2 µM
- GI50 (K-562 leukemia): 25 µM
- TGI (K-562 leukemia): > 100 µM
- GI50 (HS 578T breast): 20.6 µM
- TGI (HS 578T breast): 71.1 µM
- GI50 (NCI-H23 lung): 24.6 µM
- TGI (NCI-H23 lung): 53.7 µM
- GI50 (NCI-H460 lung): 25.2 µM
- TGI (NCI-H460 lung): 81.8 µM
- GI50 (HCT-15 colon): 32.8 µM
- TGI (HCT-15 colon): > 64.2 µM
- GI50 (SF-539 CNS): 35 µM
- TGI (SF-539 CNS): > 100 µM
- GI50 (A498 renal): 20.4 µM
- TGI (A498 renal): 77.9 µM
